Values joined by “and” are separate entries in the source; they are usually repeats but may differ in a detail not shown here. Equal values may be shown once. Toxic doses and inconclusive results are not listed.
Tested on: L1210 leukemia ip in BDF1 mice, survival T/C
Test: NCI In Vivo Anticancer Drug Screen. Data for tumor model L1210 Leukemia (intraperitoneal) in B6D2F1 (BDF1) mice
Conditions: endpoint: mean survival time, higher = longer survival
How it was run: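 Ratio derived from survival: compound-dosed mice over vehicle-dosed mice, all bearing a transplantable tumor.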

[1] = dose: 300.0 mg/kg/injection, schedule: Q01DX001 (ip), vehicle: carboxymethylcellulose (CMC)
[2] = dose: 100.0 mg/kg/injection, schedule: Q01DX001 (ip), vehicle: saline
[3] = dose: 200.0 mg/kg/injection, schedule: Q01DX001 (ip), vehicle: saline

O=C(Nc1ccc(C2=NCCN2)cc1)Nc1cccc(NC(=O)Nc2ccc(C3=NCCN3)cc2)c1
T/C (dose: 7.5 mg/kg/injection, schedule: Q01DX Z (ip), vehicle: carboxymethylcellulose (CMC)): 119 % of control
T/C (dose: 7.5 mg/kg/injection, schedule: Q#A X Z (ip), vehicle: carboxymethylcellulose (CMC)): 180 % of control
T/C (dose: 15.0 mg/kg/injection, schedule: Q01DX Z (ip), vehicle: carboxymethylcellulose (CMC)): 189 % of control
T/C (dose: 15.0 mg/kg/injection, schedule: Q#A X Z (ip), vehicle: carboxymethylcellulose (CMC)): 215 % of control
T/C (dose: 22.5 mg/kg/injection, schedule: Q03DX Z (ip), vehicle: carboxymethylcellulose (CMC)): 122 % of control
T/C (dose: 30.0 mg/kg/injection, schedule: Q01DX Z (ip), vehicle: carboxymethylcellulose (CMC)): 206 % of control and 227 % of control and 315 % of control
T/C (dose: 30.0 mg/kg/injection, schedule: Q01DX Z (sc), vehicle: carboxymethylcellulose (CMC)): 101 % of control and 107 % of control
T/C (dose: 30.0 mg/kg/injection, schedule: Q#A X Z (ip), vehicle: carboxymethylcellulose (CMC)): 220 % of control
T/C (dose: 60.0 mg/kg/injection, schedule: Q01DX004 (im), vehicle: olive oil, sesame oil, peanut oil): 92 % of control
T/C (dose: 60.0 mg/kg/injection, schedule: Q01DX Z (ip), vehicle: carboxymethylcellulose (CMC)): 216 % of control and 255 % of control and 337 % of control
T/C (dose: 60.0 mg/kg/injection, schedule: Q01DX Z (sc), vehicle: carboxymethylcellulose (CMC)): 97 % of control and 102 % of control
T/C (dose: 60.0 mg/kg/injection, schedule: Q#A X Z (ip), vehicle: carboxymethylcellulose (CMC)): 234 % of control
T/C (dose: 62.5 mg/kg/injection, schedule: Q## X009 (oral), vehicle: saline): 98 % of control
T/C (dose: 74.0 mg/kg/injection, schedule: Q01DX Z (ip), vehicle: carboxymethylcellulose (CMC)): 280 % of control
T/C (dose: 90.0 mg/kg/injection, schedule: Q03DX Z (ip), vehicle: carboxymethylcellulose (CMC)): 227 % of control
T/C (dose: 120.0 mg/kg/injection, schedule: Q01DX004 (im), vehicle: olive oil, sesame oil, peanut oil): 102 % of control
T/C (dose: 120.0 mg/kg/injection, schedule: Q01DX Z (ip), vehicle: carboxymethylcellulose (CMC)): 225 % of control and 234 % of control and 331 % of control
T/C (dose: 120.0 mg/kg/injection, schedule: Q01DX Z (oral), vehicle: carboxymethylcellulose (CMC)): 98 % of control
T/C (dose: 120.0 mg/kg/injection, schedule: Q01DX Z (sc), vehicle: carboxymethylcellulose (CMC)): 101 % of control and 104 % of control
T/C (dose: 120.0 mg/kg/injection, schedule: Q#A X Z (ip), vehicle: carboxymethylcellulose (CMC)): 218 % of control
T/C (dose: 125.0 mg/kg/injection, schedule: Q## X010 (oral), vehicle: saline): 95 % of control
T/C (dose: 148.0 mg/kg/injection, schedule: Q01DX Z (ip), vehicle: carboxymethylcellulose (CMC)): 271 % of control
T/C (dose: 180.0 mg/kg/injection, schedule: Q03DX Z (ip), vehicle: carboxymethylcellulose (CMC)): 265 % of control
T/C (dose: 210.0 mg/kg/injection, schedule: Q07DX Z (ip), vehicle: carboxymethylcellulose (CMC)): 194 % of control
T/C (dose: 222.0 mg/kg/injection, schedule: Q01DX Z (ip), vehicle: carboxymethylcellulose (CMC)): 204 % of control
T/C (dose: 240.0 mg/kg/injection, schedule: Q01DX004 (im), vehicle: olive oil, sesame oil, peanut oil): 101 % of control
T/C (dose: 240.0 mg/kg/injection, schedule: Q01DX Z (ip), vehicle: carboxymethylcellulose (CMC)): 223 % of control and 260 % of control and 309 % of control
T/C (dose: 240.0 mg/kg/injection, schedule: Q01DX Z (oral), vehicle: carboxymethylcellulose (CMC)): 97 % of control
T/C (dose: 240.0 mg/kg/injection, schedule: Q01DX Z (sc), vehicle: carboxymethylcellulose (CMC)): 95 % of control and 105 % of control
T/C (dose: 240.0 mg/kg/injection, schedule: Q#A X Z (ip), vehicle: carboxymethylcellulose (CMC)): 182 % of control
T/C (dose: 250.0 mg/kg/injection, schedule: Q## X010 (oral), vehicle: saline): 102 % of control
T/C [1]: 172 % of control
T/C (dose: 333.0 mg/kg/injection, schedule: Q01DX Z (ip), vehicle: carboxymethylcellulose (CMC)): 178 % of control
T/C (dose: 360.0 mg/kg/injection, schedule: Q03DX Z (ip), vehicle: carboxymethylcellulose (CMC)): 253 % of control
T/C (dose: 420.0 mg/kg/injection, schedule: Q07DX Z (ip), vehicle: carboxymethylcellulose (CMC)): 190 % of control
T/C (dose: 480.0 mg/kg/injection, schedule: Q01DX004 (im), vehicle: olive oil, sesame oil, peanut oil): 106 % of control
T/C (dose: 480.0 mg/kg/injection, schedule: Q01DX Z (ip), vehicle: carboxymethylcellulose (CMC)): 177 % of control and 215 % of control
T/C (dose: 480.0 mg/kg/injection, schedule: Q01DX Z (oral), vehicle: carboxymethylcellulose (CMC)): 97 % of control
T/C (dose: 480.0 mg/kg/injection, schedule: Q01DX Z (sc), vehicle: carboxymethylcellulose (CMC)): 105 % of control and 108 % of control
T/C (dose: 500.0 mg/kg/injection, schedule: Q01DX Z (ip), vehicle: carboxymethylcellulose (CMC)): 156 % of control
T/C (dose: 500.0 mg/kg/injection, schedule: Q## X009 (oral), vehicle: saline): 98 % of control
T/C (dose: 720.0 mg/kg/injection, schedule: Q03DX Z (ip), vehicle: carboxymethylcellulose (CMC)): 252 % of control
T/C (dose: 840.0 mg/kg/injection, schedule: Q07DX Z (ip), vehicle: carboxymethylcellulose (CMC)): 227 % of control
T/C (dose: 960.0 mg/kg/injection, schedule: Q01DX Z (oral), vehicle: carboxymethylcellulose (CMC)): 97 % of control
T/C (dose: 1440.0 mg/kg/injection, schedule: Q03DX Z (ip), vehicle: carboxymethylcellulose (CMC)): 231 % of control
T/C (dose: 1680.0 mg/kg/injection, schedule: Q07DX Z (ip), vehicle: carboxymethylcellulose (CMC)): 239 % of control
T/C (dose: 1920.0 mg/kg/injection, schedule: Q01DX Z (oral), vehicle: carboxymethylcellulose (CMC)): 98 % of control
T/C (dose: 3360.0 mg/kg/injection, schedule: Q07DX Z (ip), vehicle: carboxymethylcellulose (CMC)): 300 % of control

NC(=S)N/N=C(\c1ccc(F)cc1)C1CC1
T/C (dose: 1.0 mg/kg/injection, schedule: Q01DX Z (ip), vehicle: methylcellulose (MC)): 92 % of control
T/C (dose: 2.0 mg/kg/injection, schedule: Q01DX Z (ip), vehicle: methylcellulose (MC)): 101 % of control
T/C (dose: 4.0 mg/kg/injection, schedule: Q01DX Z (ip), vehicle: methylcellulose (MC)): 97 % of control
T/C (dose: 8.0 mg/kg/injection, schedule: Q01DX Z (ip), vehicle: methylcellulose (MC)): 93 % of control
T/C (dose: 8.0 mg/kg/injection, schedule: Q01DX Z (oral), vehicle: methylcellulose (MC)): 100 % of control

[N-]=[N+]=NC1=NN2NNN=C2C(N)=C1
T/C [2]: 105 % of control
T/C [3]: 107 % of control

CN(C)Nc1ncnc2nc[nH]c12
T/C (dose: 12.5 mg/kg/injection, schedule: Q01DX Z (ip), vehicle: carboxymethylcellulose (CMC)): 98 % of control
T/C (dose: 25.0 mg/kg/injection, schedule: Q01DX Z (ip), vehicle: carboxymethylcellulose (CMC)): 104 % of control
T/C (dose: 50.0 mg/kg/injection, schedule: Q01DX Z (ip), vehicle: carboxymethylcellulose (CMC)): 106 % of control and 115 % of control
T/C (dose: 75.0 mg/kg/injection, schedule: Q01DX001 (ip), vehicle: carboxymethylcellulose (CMC)): 102 % of control
T/C (dose: 100.0 mg/kg/injection, schedule: Q01DX Z (ip), vehicle: carboxymethylcellulose (CMC)): 114 % of control and 118 % of control
T/C (dose: 150.0 mg/kg/injection, schedule: Q01DX001 (ip), vehicle: carboxymethylcellulose (CMC)): 102 % of control
T/C [1]: 110 % of control

Nc1ccc2c(c1)C(=O)CCCC2
T/C (dose: 100.0 mg/kg/injection, schedule: Q01DX001 (ip), vehicle: carboxymethylcellulose (CMC)): 102 % of control
T/C (dose: 200.0 mg/kg/injection, schedule: Q01DX001 (ip), vehicle: carboxymethylcellulose (CMC)): 104 % of control
T/C (dose: 400.0 mg/kg/injection, schedule: Q01DX001 (ip), vehicle: carboxymethylcellulose (CMC)): 98 % of control

CCCCOc1ccc(/C=N/NC(=O)Nc2ccccc2)cc1
T/C (dose: 25.0 mg/kg/injection, schedule: Q01DX009 (ip), vehicle: Klucel (hydroxypropylcellulose) (HPC)): 95 % of control
T/C (dose: 50.0 mg/kg/injection, schedule: Q01DX009 (ip), vehicle: Klucel (hydroxypropylcellulose) (HPC)): 97 % of control
T/C (dose: 100.0 mg/kg/injection, schedule: Q01DX009 (ip), vehicle: Klucel (hydroxypropylcellulose) (HPC)): 88 % of control and 90 % of control
T/C (dose: 400.0 mg/kg/injection, schedule: Q01DX009 (ip), vehicle: Klucel (hydroxypropylcellulose) (HPC)): 87 % of control

NC1=CC(=O)CCC1
T/C [2]: 103 % of control
T/C [3]: 100 % of control
T/C (dose: 400.0 mg/kg/injection, schedule: Q01DX001 (ip), vehicle: saline): 97 % of control

Cc1cc(C)c2c(C#N)cn(-c3cccc([N+](=O)[O-])c3)c2n1
T/C (dose: 50.0 mg/kg/injection, schedule: Q01DX001 (ip), vehicle: saline with Tween-80): 98 % of control
T/C (dose: 100.0 mg/kg/injection, schedule: Q01DX001 (ip), vehicle: saline with Tween-80): 103 % of control
T/C (dose: 200.0 mg/kg/injection, schedule: Q01DX001 (ip), vehicle: saline with Tween-80): 95 % of control
T/C [3]: 87 % of control

Reference: PubChem BioAssay AID248 (DTP/NCI, 2004)
